Measurements reported in patent US10513521B2, “Compositions and methods for inhibiting BMP” (The Brigham and Women's Hospital, Inc., priority 2014, dated 2019).
Where a chain is given by its changes, count along the chain named.

What was measured:
ALK6 = ALK6 (Homo sapiens, UniProt O00238); test: TR-FRET enzymatic ALK kinase assay, ALK6
Method: (§1) Briefly, the ALKs enzymatic assay was initiated by dispense 2.5 μl enzyme in 1× kinase reaction buffer. The assay plate was then added with compounds followed by incubation at room temperature for 10 minutes. Then 2.5 μl/well substrate was added.

ALK4 = target: T1, ALK4 (Homo sapiens, UniProt P36896); test: TR-FRET enzymatic ALK kinase assay, ALK4
T1 sequence (P36896 24-505): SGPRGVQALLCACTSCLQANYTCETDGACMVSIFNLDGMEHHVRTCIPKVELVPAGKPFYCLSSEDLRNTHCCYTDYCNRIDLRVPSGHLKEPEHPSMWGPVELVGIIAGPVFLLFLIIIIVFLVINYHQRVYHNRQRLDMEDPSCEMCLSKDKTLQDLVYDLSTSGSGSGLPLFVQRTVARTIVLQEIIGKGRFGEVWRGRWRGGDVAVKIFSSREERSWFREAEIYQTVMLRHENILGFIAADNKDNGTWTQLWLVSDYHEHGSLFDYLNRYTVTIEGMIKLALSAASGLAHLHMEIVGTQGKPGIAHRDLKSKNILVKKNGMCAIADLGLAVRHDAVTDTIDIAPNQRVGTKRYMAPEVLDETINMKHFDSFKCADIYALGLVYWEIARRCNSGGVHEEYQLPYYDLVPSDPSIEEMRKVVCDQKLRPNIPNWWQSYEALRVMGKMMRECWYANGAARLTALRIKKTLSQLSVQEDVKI
Method: as §1

ALK2 [1] = target: T2, ALK2 (Homo sapiens, UniProt Q04771); test: TR-FRET enzymatic ALK kinase assay, ALK2
T2 sequence (Q04771 21-509): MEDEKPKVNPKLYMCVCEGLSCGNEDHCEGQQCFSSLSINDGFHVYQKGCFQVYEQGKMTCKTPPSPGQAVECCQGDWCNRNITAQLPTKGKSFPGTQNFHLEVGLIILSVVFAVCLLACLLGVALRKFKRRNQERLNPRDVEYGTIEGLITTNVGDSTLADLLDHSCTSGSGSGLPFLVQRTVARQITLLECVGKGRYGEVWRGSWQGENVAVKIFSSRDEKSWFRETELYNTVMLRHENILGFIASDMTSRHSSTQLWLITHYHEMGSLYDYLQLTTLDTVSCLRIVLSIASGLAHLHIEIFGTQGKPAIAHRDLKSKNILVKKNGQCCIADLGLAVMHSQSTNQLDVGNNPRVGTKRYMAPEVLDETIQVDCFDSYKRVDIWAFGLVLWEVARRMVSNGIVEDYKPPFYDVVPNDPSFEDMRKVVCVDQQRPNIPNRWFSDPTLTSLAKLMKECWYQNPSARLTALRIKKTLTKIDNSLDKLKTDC
Method: as §1

ALK1 = ALK1 (Homo sapiens, UniProt P37023); test: TR-FRET enzymatic ALK kinase assay, ALK1
Chain of ALK1 (P37023 22-503): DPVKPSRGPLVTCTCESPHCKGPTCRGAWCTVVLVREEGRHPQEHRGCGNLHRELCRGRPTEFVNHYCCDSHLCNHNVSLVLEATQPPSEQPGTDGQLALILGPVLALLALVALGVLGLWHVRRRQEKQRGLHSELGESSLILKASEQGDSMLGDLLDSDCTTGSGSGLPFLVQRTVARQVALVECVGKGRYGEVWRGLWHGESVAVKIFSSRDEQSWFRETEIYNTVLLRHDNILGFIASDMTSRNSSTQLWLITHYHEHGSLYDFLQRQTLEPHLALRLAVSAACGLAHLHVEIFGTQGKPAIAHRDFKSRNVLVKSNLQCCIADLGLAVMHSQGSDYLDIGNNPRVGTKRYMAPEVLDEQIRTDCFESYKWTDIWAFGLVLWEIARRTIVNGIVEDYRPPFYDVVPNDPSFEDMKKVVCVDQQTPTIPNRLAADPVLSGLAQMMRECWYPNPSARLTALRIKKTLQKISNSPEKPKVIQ
Method: as §1

ALK3 = ALK3 (Homo sapiens, UniProt P36894); test: TR-FRET enzymatic ALK kinase assay, ALK3
Chain of ALK3 (P36894 24-532): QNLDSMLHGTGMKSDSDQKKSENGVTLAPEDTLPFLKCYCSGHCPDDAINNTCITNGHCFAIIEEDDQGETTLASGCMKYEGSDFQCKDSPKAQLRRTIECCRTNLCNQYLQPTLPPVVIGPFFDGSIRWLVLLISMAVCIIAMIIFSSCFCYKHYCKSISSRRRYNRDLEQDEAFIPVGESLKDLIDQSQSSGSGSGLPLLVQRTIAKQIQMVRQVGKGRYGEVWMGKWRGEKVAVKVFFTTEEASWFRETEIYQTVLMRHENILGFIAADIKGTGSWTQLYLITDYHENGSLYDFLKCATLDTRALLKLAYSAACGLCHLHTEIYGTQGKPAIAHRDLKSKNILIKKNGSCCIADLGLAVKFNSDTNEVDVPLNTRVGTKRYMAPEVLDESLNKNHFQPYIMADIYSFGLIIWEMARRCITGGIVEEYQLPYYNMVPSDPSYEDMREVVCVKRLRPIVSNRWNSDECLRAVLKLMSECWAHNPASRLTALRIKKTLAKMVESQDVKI
Method: as §1

ALK5 = target: T3, ALK5 (Homo sapiens, UniProt P36897); test: TR-FRET enzymatic ALK kinase assay, ALK5
T3 sequence (P36897 34-503): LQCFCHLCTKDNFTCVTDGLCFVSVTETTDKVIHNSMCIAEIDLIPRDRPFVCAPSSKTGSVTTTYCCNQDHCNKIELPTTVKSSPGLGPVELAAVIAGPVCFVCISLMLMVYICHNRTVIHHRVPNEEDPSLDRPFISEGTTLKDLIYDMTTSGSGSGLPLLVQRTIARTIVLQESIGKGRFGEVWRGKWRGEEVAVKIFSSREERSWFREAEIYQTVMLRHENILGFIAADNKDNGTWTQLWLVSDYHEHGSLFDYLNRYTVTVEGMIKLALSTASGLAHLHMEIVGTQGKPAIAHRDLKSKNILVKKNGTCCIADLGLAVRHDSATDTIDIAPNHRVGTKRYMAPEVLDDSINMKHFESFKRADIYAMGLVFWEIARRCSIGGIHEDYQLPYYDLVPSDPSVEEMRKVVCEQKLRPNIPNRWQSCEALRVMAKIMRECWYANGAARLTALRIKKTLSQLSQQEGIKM
Method: Six ALK kinase enzyme assays were developed for determination of compound activities on ALK1, ALK2, ALK3, ALK4, ALK5 and ALK6.
as §1

ALK2 [2] = target: T4, ALK2 (Mus musculus, UniProt P37172); test: HTRF pSMAD1 cell-based ALK2 assay (C2C12 cells, BMP6 as agonist); conditions: cell-based assay, BMP6; read-out: Cell IC50 BMP6
T4 construct: The C2C12 cell line was selected for the measurement of ALK2 activity using BMP6 as the agonist; host or cells: C2C12
T4 sequence (P37172 21-509): T2 sequence (Q04771 21-509) with M1V, P10Q, L121I, D162E, P310S
Outline: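 Phospho-SMAD1 HTRF readout, detection incubated overnight at room temperature. Before that: starved cells in 0.1% FBS for 4 h, 30 min compound pretreatment, then 30 min agonist, BMP6 on C2C12 or BMP9 on BAOEC.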

[3] = Cell-based assay, TGFb1 (Cell IC50)

Chain of ALK6 (O00238 14-502): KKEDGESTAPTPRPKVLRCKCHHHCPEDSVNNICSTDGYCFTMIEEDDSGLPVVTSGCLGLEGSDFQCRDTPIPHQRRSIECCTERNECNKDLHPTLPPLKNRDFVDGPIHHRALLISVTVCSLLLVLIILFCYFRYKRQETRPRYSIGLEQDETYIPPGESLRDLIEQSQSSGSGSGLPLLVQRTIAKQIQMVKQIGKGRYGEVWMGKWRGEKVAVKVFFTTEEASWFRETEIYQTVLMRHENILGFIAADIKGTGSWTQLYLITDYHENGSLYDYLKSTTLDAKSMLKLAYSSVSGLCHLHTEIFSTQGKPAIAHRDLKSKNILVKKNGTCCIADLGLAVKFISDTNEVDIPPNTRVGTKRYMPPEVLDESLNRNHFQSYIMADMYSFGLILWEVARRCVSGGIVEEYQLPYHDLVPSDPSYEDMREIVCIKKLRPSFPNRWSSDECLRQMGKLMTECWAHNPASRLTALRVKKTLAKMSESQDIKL

IC50 (ALK6)	IC50 (ALK4)	IC50 (ALK2 [1])	IC50 (ALK1)	IC50 (ALK3)	IC50 (ALK5)	IC50 (ALK2 [2])	IC50 [3]	Structure (SMILES)
334 nM	30900 nM	226 nM	1590 nM	598 nM	–	283 nM	2930 nM	CNC(=O)c1cccc2c(-c3cnn4cc(-c5ccc(N6CCNCC6)cc5)cnc34)cccc12 [Compound 7, N-methyl-5-(6-(4-(piperazin-1-yl)phenyl)pyrazolo[1,5-a]pyrimidin-3-yl)-1-naphthamide]
17 nM	–	10 nM	45 nM	17 nM	–	100000 nM	100000 nM	O=C(O)c1cccc2c(-c3cnn4cc(-c5ccc(N6CCNCC6)cc5)cnc34)cccc12 [Compound 5, 5-(6-(4-(piperazin-1-yl)phenyl)pyrazolo[1,5-a]pyrimidin-3-yl)-1-naphthoic acid]
1740 nM	–	37 nM	186 nM	984 nM	–	8660 nM	100000 nM	O=C(O)c1ccc(-c2cnn3cc(-c4ccc(N5CCNCC5)cc4)cnc23)c2ccccc12 [Compound 1, 4-(6-(4-(piperazin-1-yl)phenyl)pyrazolo[1,5-a]pyrimidin-3-yl)-1-naphthoic acid]
–	–	1760 nM	19600 nM	18200 nM	–	3190 nM	15300 nM	CNC(=O)c1ccc(-c2cnn3cc(-c4ccc(N5CCNCC5)cc4)cnc23)c2ccccc12 [Compound 3, N-methyl-4-(6-(4-(piperazin-1-yl)phenyl)pyrazolo[1,5-a]pyrimidin-3-yl)-1-naphthamide]
76400 nM	–	2830 nM	15400 nM	–	–	593 nM	10600 nM	CN(C)C(=O)c1ccc(-c2cnn3cc(-c4ccc(N5CCNCC5)cc4)cnc23)c2ccccc12 [Compound 4, N,N-dimethyl-4-(6-(4-(piperazin-1-yl)phenyl)pyrazolo[1,5-a]pyrimidin-3-yl)-1-naphthamide]
20700 nM	–	6560 nM	8080 nM	10800 nM	–	2070 nM	5540 nM	CN(C)C(=O)c1cccc2c(-c3cnn4cc(-c5ccc(N6CCNCC6)cc5)cnc34)cccc12 [Compound 8, N,N-dimethyl-5-(6-(4-(piperazin-1-yl)phenyl)pyrazolo[1,5-a]pyrimidin-3-yl)-1-naphthamide]

Second part, the compound before the results:

Structure (SMILES)	IC50 (ALK6)	IC50 (ALK4)	IC50 (ALK2 [1])	IC50 (ALK1)	IC50 (ALK3)	IC50 (ALK5)	IC50 (ALK2 [2])	IC50 [3]
CC(C)(CN1CCCCC1)Oc1ccc(-c2cnc3c(-c4ccc(C(N)=O)c5ccccc45)cnn3c2)cc1 [Compound 17, 4-(6-(4-((2-methyl-1-(piperidin-1-yl)propan-2-yl)oxy)phenyl)pyrazolo[1,5-a]pyrimidin-3-yl)-1-naphthamide]	1240 nM	2020 nM	5 nM	11 nM	62 nM	8580 nM	16 nM	434 nM
c1cc(-c2nn[nH]n2)cc(-c2cnn3cc(-c4ccc(CCN5CCCCC5)cc4)cnc23)c1 [Compound 89, 3-(3-(2H-tetrazol-5-yl)phenyl)-6-(4-(2-(piperidin-1-yl)ethyl)phenyl)pyrazolo[1,5-a]pyrimidine]	> 10000 nM	> 10000 nM	14 nM	7100 nM	> 10000 nM	> 10000 nM	–	12400 nM
N=C(N)c1ccc(-c2cnn3cc(-c4ccc(N5CCNCC5)cc4)cnc23)c2ccccc12 [Compound 16, 4-(6-(4-(piperazin-1-yl)phenyl)pyrazolo[1,5-a]pyrimidin-3-yl)-1-naphthimidamide]	74800 nM	73900 nM	84 nM	405 nM	4930 nM	–	890 nM	13500 nM
C[C@@H]1CNC[C@H](C)N1c1ccc(-c2cnc3c(-c4ccc(CN)c5ccccc45)cnn3c2)cc1 [Compound 23, (4-(6-(4-((2R,6S)-2,6-dimethylpiperazin-1-yl)phenyl)pyrazolo[1,5-a]pyrimidin-3-yl)naphthalen-1-yl)methanamine]	–	–	5310 nM	9600 nM	–	–	33 nM	10800 nM
N=C(N)c1ccc(-c2cnn3cc(-c4ccc(N5CCNCC5)cc4)cnc23)cc1 [Compound 14, 4-(6-(4-(piperazin-1-yl)phenyl)pyrazolo[1,5-a]pyrimidin-3-yl)benzimidamide]	16900 nM	–	916 nM	3060 nM	17600 nM	15600 nM	4200 nM	44100 nM
N/C(=N/O)c1ccc(-c2cnn3cc(-c4ccc(N5CCNCC5)cc4)cnc23)cc1 [Compound 13, N′-hydroxy-4-(6-(4-(piperazin-1-yl)phenyl)pyrazolo[1,5-a]pyrimidin-3-yl)benzimidamide]	–	–	38 nM	276 nM	880 nM	–	380 nM	6820 nM
CS(=O)(=O)c1cccc(-c2cnn3cc(-c4ccc(C(F)(F)CN5CCNCC5)cc4)cnc23)c1 [Compound 122, 6-(4-(1,1-difluoro-2-(piperazin-1-yl)ethyl)phenyl)-3-(3-(methylsulfonyl)phenyl)pyrazolo[1,5-a]pyrimidine]	> 10000 nM	> 10000 nM	250 nM	370 nM	> 10000 nM	> 10000 nM	2 nM	–
CS(=O)(=O)c1cccc(-c2cnn3cc(-c4ccc(C(F)(F)CN5CCCCC5)cc4)cnc23)c1 [Compound 120, 6-(4-(1,1-difluoro-2-(piperidin-1-yl)ethyl)phenyl)-3-(3-(methylsulfonyl)phenyl)pyrazolo[1,5-a]pyrimidine]	> 10000 nM	> 10000 nM	> 10000 nM	> 10000 nM	> 10000 nM	> 10000 nM	3600 nM	–
C[C@@H]1CNC[C@H](C)N1c1ccc(-c2cnc3c(-c4cccc(C(N)=O)c4)cnn3c2)cc1 [Compound 67, 3-(6-(4-((2R,6S)-2,6-dimethylpiperazin-1-yl)phenyl)pyrazolo[1,5-a]pyrimidin-3-yl)benzamide]	2100 nM	2600 nM	33 nM	83 nM	310 nM	8400 nM	155 nM	–
